In PubChem BioAssay AID1253 (Columbia University Molecular Screening Center, 2008) one finds IC50 and inhibition data, which are given here for 64 compounds.

Calls of active or inactive are those of the source.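 Rule for the calls: active = IC50 under 10 µM in the follow-up dose response; inactive = IC50 10 µM or more, or under 40% single-dose inhibition.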

For one experiment, the target named is Tyrosine-protein phosphatase non-receptor type 22 (Homo sapiens) (UniProt Q9Y2R2). Description: PTPN22 enzyme inhibition – biochemical, DiFMUP fluorescence, retest and dose response, confirmation (AID 1253). The following applies: recombinant LYP.
Sequence of Tyrosine-protein phosphatase non-receptor type 22 (Homo sapiens) (Q9Y2R2 whole entry, looked up): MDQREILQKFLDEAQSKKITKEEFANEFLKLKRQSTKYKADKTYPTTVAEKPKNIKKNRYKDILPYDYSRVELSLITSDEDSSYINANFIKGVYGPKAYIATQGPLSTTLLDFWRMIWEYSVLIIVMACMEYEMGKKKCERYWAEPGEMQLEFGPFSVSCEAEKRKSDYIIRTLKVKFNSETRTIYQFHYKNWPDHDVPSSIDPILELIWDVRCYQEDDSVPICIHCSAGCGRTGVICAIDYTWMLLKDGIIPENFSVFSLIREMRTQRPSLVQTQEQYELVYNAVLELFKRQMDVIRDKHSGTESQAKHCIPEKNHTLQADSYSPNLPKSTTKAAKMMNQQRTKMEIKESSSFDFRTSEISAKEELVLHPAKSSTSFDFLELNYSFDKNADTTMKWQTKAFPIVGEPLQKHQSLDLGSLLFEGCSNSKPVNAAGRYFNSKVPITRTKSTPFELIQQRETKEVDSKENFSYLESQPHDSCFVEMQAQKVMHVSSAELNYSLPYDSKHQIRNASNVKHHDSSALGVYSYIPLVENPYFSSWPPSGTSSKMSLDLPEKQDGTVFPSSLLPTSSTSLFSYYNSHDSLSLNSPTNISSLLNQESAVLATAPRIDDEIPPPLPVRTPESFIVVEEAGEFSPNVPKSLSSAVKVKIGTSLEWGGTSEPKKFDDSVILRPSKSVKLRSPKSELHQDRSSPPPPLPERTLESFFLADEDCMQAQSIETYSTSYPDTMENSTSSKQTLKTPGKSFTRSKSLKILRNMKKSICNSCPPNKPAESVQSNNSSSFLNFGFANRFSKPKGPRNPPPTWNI
Turning to `O=[N+]([O-])c1cc(/C=N\Nc2nccs2)ccc1O`, the IC50 is 4.06 µM. Same read-out and setting: the figure for `Cc1c2cc(O)c(=O)cc-2oc2cc(O)c(O)cc12` is 0.48 µM.

With `Nc1c(C(=O)Nc2nc3ccccc3s2)sc2nc(-c3cccs3)ccc12`, the IC50 was 1.24 µM.

As for `O=C(O)CCCN1C(=O)/C(=C/c2ccc(-c3nc4ccccc4s3)o2)SC1=S`, the IC50 was 1.13 µM. Take `O=C(c1cccs1)c1no[n+]([O-])c1C(=O)c1cccs1`: the IC50 is 1.66 µM.

Staying with this experiment, now noted: recombinant LYP, at 10 µM, hits give high values.
`c1ccc(-c2cc(-c3nnc4n3N=C(c3ccc5ccccc5c3)CS4)[nH]n2)cc1`: the inhibition entry is “inactive”. As for `COCCn1c(Cc2ccccc2)nnc1SCc1nc2ccccc2c(=O)[nH]1`, the inhibition result is “inactive”. Take `CC(=O)NC1CC2CCCC(C1)N2C(=O)Nc1ccccc1` (centres undefined): the inhibition result was “inactive”. Same read-out and setting: the entry for `O=C(N/N=C/c1ccc2ccccc2c1)c1ccc(COc2ccc3c(c2)CCC3)o1` is “inactive”; for `O=C(CN(C(=O)CNC(=O)c1ccco1)c1ccc2c(c1)OCO2)NC1CCCCC1` it is “inactive”; for `CCCCNS(=O)(=O)c1ccc(NS(=O)(=O)c2c(C)cc(C)cc2C)cc1` it is “inactive”. The same measure, in the same setting: the entry for `COc1ccc(CN2CCN(C(=O)c3ccco3)CC2)cc1` is “inactive”; for `CCCC1COC(Cn2cncn2)(c2ccc(Cl)cc2Cl)O1` (centres undefined) it is “inactive”. Still for that read-out and setting: the value for `Cc1ccc(-n2nc3c4c(cccc4c2=O)-c2ccccc2-3)cc1` was “inactive”; that for `N#CC(c1cccc(C(F)(F)F)c1)(c1ncc(C(F)(F)F)cc1Cl)N1CCOCC1` (centres undefined) was “inactive”; that for `Cc1cc(C)n2c(SCC(=O)N3CCN(S(=O)(=O)c4ccc(Cl)cc4)CC3)nnc2n1` was “inactive”. In the case of `Cc1nnc(NC(=O)Nc2ccc(Cl)c(Cl)c2)s1`, the inhibition result is “inactive”.

As to `COc1cnc(-c2ccccn2)nc1Sc1ccc(Cl)cc1`, the inhibition result was “inactive”.

Regarding `O=C(Nc1nnc(COc2ccc(Cl)cc2)s1)c1ccc([N+](=O)[O-])cc1`, the inhibition entry was “inactive”.

In the case of `CCOC(=O)c1ccc(NC(=O)CC2NCCNC2=O)cc1` (centres undefined), the inhibition entry is “inactive”. Same read-out and setting: the value for `COC(=O)c1sccc1-n1cccc1C(=O)N1CCOCC1` was “inactive”. `COc1ccccc1/C=C\C=N\n1c(C2CCCCC2)n[nH]c1=S`: the inhibition entry is “inactive”. The same measure, in the same setting: the entry for `O=C(O)CCCCCNc1nc(=S)[nH]c2ccccc12` is “inactive”; for `O=c1c(/C=N/Nc2ccccc2)c(Sc2nnnn2-c2ccccc2)nc2ccccn12` it is “inactive”. On the same count and under the same terms, the value for `Cc1ccc(Nc2cc(C)nn2-c2nc(C)cc(=O)[nH]2)cc1` was “inactive”. `O=S(=O)(Nc1nc(-c2sccc2Cl)cs1)c1cc(Cl)ccc1Cl`: the inhibition entry was “inactive”. On the same count and under the same terms, the value for `CN1/C(=C\C=C\C2=[N+](C)c3ccc4ccccc4c3C2(C)C)C(C)(C)c2ccccc21` was “inactive”; that for `O=C(N/N=C/c1ccncc1)c1cc([N+](=O)[O-])cc([N+](=O)[O-])c1O` was “inactive”; that for `Cn1c(=O)cc(SCC(=O)NCCN2CCN(c3ccccc3F)CC2)c2cc(Cl)ccc21` was “inactive”. Still for that read-out and setting: the entry for `CCCCN(C(=O)CSc1nnc(Nc2ccc(C)c(C)c2)s1)c1c(N)n(Cc2ccccc2)c(=O)[nH]c1=O` is “inactive”; for `CCn1nc(C(=O)OCC(=O)c2cc(C)n(Cc3cccs3)c2C)c2ccccc2c1=O` it is “inactive”. Still for that read-out and setting: the value for `Cc1c(CCOC(=O)C2C3CC4CC(C3)CC2C4)sc[n+]1CC(=O)c1ccc(Br)cc1` (centres undefined) was “inactive”; that for `COc1ccc2cc(CN(Cc3ccco3)C(c3nnnn3C3CCCCC3)C(C)C)c(=O)[nH]c2c1` (centres undefined) was “inactive”; that for `Clc1ccc(C2=Nn3c(nnc3-c3cc(-c4ccccc4)n[nH]3)SC2)cc1` was “inactive”.

In the case of `O=C(Nc1ccc(N2CCCCC2)c(Cl)c1)c1ccc2c(c1)OCCO2`, the inhibition entry was “inactive”. On the same count and under the same terms, the entry for `CCCn1c(Nc2ccc(Cl)cc2)nc2ccccc21` is “inactive”; for `CSc1ccc(/C=N\NC(=O)COc2ccc(Cl)cc2Br)cc1` it is “inactive”. Regarding `CCCSc1nc(C)c(-c2csc(C(C#N)=C3CCCC3)n2)cc1C#N`, the inhibition result was “inactive”. The same measure, in the same setting: the entry for `CCOC(=O)c1cn(-c2nc(-c3ccc(Cl)c(Cl)c3)cs2)c2c(F)c(N3CCOCC3)c(F)cc2c1=O` is “inactive”. Same read-out and setting: the entry for `Cc1ccc(-c2nn(CC(=O)NCc3cc(-c4nn(C)c(=O)c5ccccc45)ccc3C)c(=O)c3ccccc23)cc1` is “inactive”; for `C=CCNC(=S)NNC(=O)c1cccn(Cc2cccc(Cl)c2)c1=O` it is “inactive”; for `COc1ccc(NC(=O)CSc2ccc3c4c(cccc24)C(=O)c2ccccc2-3)cc1` it is “inactive”. As to `O=C(Nc1ccc2oc(-c3ccc4ccccc4c3)nc2c1)c1ccc2c(c1)OCCO2`, the inhibition result is “inactive”. Same read-out and setting: the value for `CCc1nnc(NS(=O)(=O)c2ccc(NC(=S)NC(=O)/C=C/c3ccc(C(C)C)cc3)cc2)s1` was “inactive”; that for `O=C(CSc1nnc(-c2cccs2)n1-c1cccc(Cl)c1)c1cccc2c1OCCO2` was “inactive”; that for `Cc1nc2ccc(S(=O)(=O)NCC(=O)NCc3ccc4c(c3)OCO4)cc2s1` was “inactive”.

Turning to `O=C(Nc1ccc2oc(-c3cccc4ccccc34)nc2c1)c1ncn[nH]1`, the inhibition entry is “inactive”.

`Cc1nc(NC(=O)CC(C)C)sc1-c1csc(Nc2ccc(Cl)cc2)n1`: the inhibition result is “inactive”. On the same count and under the same terms, the entry for `Cc1cc(C(C)(C)C)cc(C)c1COC(=O)C1CCC(=O)N1` (centres undefined) is “inactive”. Still for that read-out and setting: the entry for `CCOc1ccc(N=C2NC(=O)S/C2=C\c2ccc(Cl)cc2)cc1` is “inactive”; for `Nn1cnnc1N/N=C/c1cc(Br)cc(Br)c1O` it is “inactive”. On the same count and under the same terms, the value for `Cc1cc(C)cc(-n2c3nc4ccccc4nc3c3c(=O)n(Cc4ccco4)cnc32)c1` was “inactive”. As for `CCOC(=O)c1ccc(NC(=O)CSc2nc(NC(=O)c3ccccc3)c3c(C)c(C)oc3n2)cc1`, the inhibition result is “inactive”. On the same count and under the same terms, the entry for `CNC(=S)NNC(=O)c1cccn(Cc2cccc(Cl)c2)c1=O` is “inactive”. For the compound `Cc1nnc(SCC(=O)N/N=C/c2cn(-c3ccccc3)nc2-c2ccccc2)n1-c1ccccc1`, the inhibition entry is “inactive”. The same measure, in the same setting: the entry for `Cc1ccc(C(=O)n2nc(-c3ccco3)nc2N)cc1` is “inactive”; for `O=C(NCc1ccco1)c1ccc2nc3sc4c(c3c(=O)n2c1)CCCC4` it is “inactive”; for `COc1ccc2nc(SCc3cnc(C)nc3N)[nH]c2c1` it is “inactive”. Still for that read-out and setting: the value for `O=C(Cn1c(-c2ccc(Cl)cc2)noc1=O)N1CCN(c2ccccc2F)CC1` was “inactive”; that for `CC1CCN(S(=O)(=O)c2ccc(NN=C(C#N)C#N)cc2)CC1` was “inactive”; that for `COc1ccc2c(C)cc(SCC(=O)Nc3c(C)n(C)n(-c4ccccc4)c3=O)nc2c1` was “inactive”. Still for that read-out and setting: the entry for `CN1CCn2c1nc(N1CCOCC1)nc2=O` is “inactive”; for `CNC(=S)NNC(=O)c1cccn(Cc2ccc(Cl)cc2Cl)c1=O` it is “inactive”; for `O=C(Nc1cnc2ccccc2c1)C1COc2ccccc2O1` (centres undefined) it is “inactive”.

In general, IC50 refers to the concentration needed to halve the response being measured.
